Test results taken from patent US4149007A, “C14 Phenyl-substituted derivatives of prostaglandin analogues” (Miles Laboratories, Inc., priority 1977, dated 1979).
“Also recorded” adds a separate entry of the source.

Assays:
rat uterus = experiment: Effects on the rat uterus in vitro; assay type: cell-based; conditions: dose producing response 50% that of carbachol
Experimental: (B) effect on the rat uterus in vitro;
The uterine stimulant effect of test compounds was determined in segments of uterus obtained from rats (140-160 g) pretreated subcutaneously with 1 mg/kg of diethylstilbesterol 18 hours before the experiment. The tissues were placed in 10 ml chambers filled with de-Jalon solution at 29° C., were aerated and bubbled with 95% O2 and 5% CO2, and were prepared for isometric recording with force displacement transducers. Preparations were stretched to an initial tension of 1 g and were left undisturbed for 30 minutes. Carbachol (1 mcg/ml) was then added to the bath and a response was recorded. After a ten minute interval the carbachol procedure was repeated. Responses to increasing concentrations of a test compound (0.001 to 10 mcg/ml with one log intervals) were then recorded every 10 minutes. Preparations were washed four times after each response. All doses of compounds were administered in a 0.1 ml volume. Because it has been observed that the magnitude of the second response to carbachol (approximately 10% greater than the first) is close to the maximal response of the tissue, such value was taken as a measure of the sensitivity of a particular segment. Responses to each concentration of the test compound were expressed in terms of percentage of the second response to carbachol and the ED50 (dose producing a response 50% that of carbachol) was calculated graphically.
Activity was scored according to the following scale: […]

guinea pig trachea = experiment: Effects on the guinea pig trachea in vitro; assay type: cell-based; conditions: 0.01-10.0 mcg/ml, relative to PGE1 0.1 mcg/ml
Experimental: (C) effect on the guinea pig trachea in vitro;
A male guinea pig weighing 200-500 g was killed by a blow on the head. A 20 mm length of the trachea was dissected from the animal, transferred to a petri dish containing Krebs' solution (aerated with 95% O2 and 5% CO2 at 37° C.), and cut longitudinally opposite the tracheal muscle. The tissue was then cut transversely three quarters of the distance across, a second cut in the opposite direction (again three quarters of the distance across the tissue) was made and the procedure was continued for the whole tissue. The ends of the trachea were pulled to form a zig-zig shaped strip. The tracheal strip used in the experiment was approximately 30 mm when extended under 0.25-0.5 g load in the tissue bath. Cotton thread was tied to one end of the tissue, and linen thread to the other. It was attached via the linen thread to a glass hook in a 5 ml isolated tissue bath containing Krebs' solution (37° C., aerated with a mixture of 95% O2 and 5% CO2). […]
A test compound was then added to the same two strips at bath concentrations of 0.01, 0.1, 1.0, and 10.0 mcg/ml and the effects of the compound were recorded. […] The mean of the effects of the test compound on the two strips was then calculated for each concentration, and, based on the resulting values, an activity value was assigned as follows: […]

anesthetized dog = experiment: Effects on femoral blood flow in the anesthetized dog; assay type: in vivo; conditions: intraarterial 0.001 to 10 mcg
Experimental: (H) effect on femoral blood flow in the anesthetized dog; and
The peripheral vasodilator or constrictor effects of test compounds were determined in mongrel dogs of either sex, weighing between 10 and 20 kg, anesthetized intravenously with 35 mg/kg of pentobarbital sodium. An external iliac artery was dissected immediately above the femoral arch for a length of approximately 5 cm, and a previously calibarated, non-cannulating electromagnetic-flowmeter sensor with a lumen between 2.5 and 3.5 mm was placed snugly around the vessel. Cannulas were placed in a branch of the artery arising distally to the location of the flowmeter sensor for intraarterial drug administrations, in the contralateral femoral artery for systemic blood pressure recording, and in the trachea for artificial respiration with room air. Femoral blood flow and systemic blood pressure were continuously recorded with an electromagnetic flowmeter and pressure transducer, respectively.
After an adequate control period, test compounds were injected intraarterially at one log-spaced doses ranging from 0.001 to 10 mcg, in a volume of 0.5 ml and at 5 to 10 minute intervals. […] The dose changing blood flow by 100 ml/min (ED100 ml/min) was calculated graphically and was used for scoring activity as follows: […]

hypertensive rat = experiment: Effects on blood pressure in the hypertensive rat; assay type: in vivo; design: key: 0: Not significant at any time interval; 1: Significant at one time interval; 2: Significant at two time intervals; conditions: 1 mg/kg intraperitoneal; 2, 4, 6 and 9 hours
Experimental: (I) effect on systolic blood pressure in the hypertensive rat
The acute anithypertensive activity of test compounds was determined in rats made hypertensive by the procedure of Grollman (Proc. Soc. Exper Biol. Med., 57: 102 [1944]). Female rats weighing between 60 and 100 g were anesthetized with ether, the right kidney approached through a flank retroperitoneal incision, decapsulated and tied with a figure-of-eight-ligature. The animals were left to recover and two weeks later were again anesthetized and the contralateral kidney removed. […]
Blood pressure was measured in the tail with an inflatable occluding cuff placed at the base of the extremity and a pulse detector located distally. The cuff was inflated to approximately 300 mmHg and was slowly deflated until pulsations appeared, indicating the level of systolic pressure; diastolic pressure was not recorded by this procedure. […] In all cases, three pressure readings were obtained in succession and mean values were calculated thereof.
Experiments were carried out in groups of five hypertensive rats in which systolic pressure was determined immediately before and 2, 4, 6 and 9 hours after intraperiotoneal administration of the test compound at a dose of 1 mg/kg. Drugs were diluted from stock solutions with phosphate buffer (Lee et al., Prostaglandins, 3: 29 [1973]), so as to inject this quantity in a volume of 1 ml/kg. […]

guinea pig ileum [1] = experiment: Antagonism of the effects of PGE1 on the guinea pig ileum in vitro; assay type: cell-based; conditions: listed as TR 4412
Experimental: (§1) The degree and specificity of antagonism of test compounds to the smooth muscle stimulant effects of prostaglandins were assessed in segments of terminal guinea pig ileum. Preparations were placed in tissue chambers filled with Ringer-Tyrode solution at 37° C., bubbled with a mixture of 95% O2 and 5% CO2, and arranged for isometric recording with force displacement transducers. The segments were stretched to an initial tension of 1 g, and responses to a test concentration of acetylcholine (0.1 mcg/ml) were obtained every 5 minutes until two similar responses were observed (usually after four administrations). […] Any direct contractile effect of the test compound was recorded and evaluated in terms of mean values in grams of tension developed at each concentration. Responses to the different agonists observed after incubation with the test compound were expressed as percent of control responses. All drugs were administered in a volume of 0.1 ml.
(§2) Antagonism to prostaglandins was scored independently for PGE1 and PGF2α according to the following criteria: […]

anesthetized cat = experiment: Effects on blood pressure and heart rate in the anesthetized cat; assay type: in vivo; conditions: i.v. 0.01 to 10.0 mcg/kg, scored on hypotension only
Experimental: (G) effect on blood pressure and heart rate in the anesthetized cat;
The acute effects of test compounds on blood pressure and heart rate were determined in cats of either sex anesthetized with a mixture of pentobarbital sodium (35 mg/kg, i.v.) and barbital sodium (100 mg/kg, i.v.). Cannulas were placed in the trachea to allow adequate spontaneous ventilation, in a femoral artery for blood pressure recording with a strain gage transducer, and in a saphenous vein for drug administration. Heart rate was recorded by means of a cardiotachometer driven by the R wave of the electrocardiogram. After a period of 10 minutes of stable recordings of blood pressure and heart rate, the test compound was administered intravenously at doses increasing from 0.01 to 10.0 mcg/kg, spaced one log and injected at 10 minute intervals. All doses were injected in a volume of 0.1 ml/kg. Modifications of blood pressure and heart rate induced by the test compound were expressed both in absolute units (mmHg and beats/minute) and as percent of values recorded immediately before administration of each dose. […]
Activity of compounds in this test was judged only on the basis of the degree of hypotension observed. Thus, the ED50 mmHg (dose decreasing blood pressure by 50 mmHg) was calculated graphically, and the compound scored according to the following scale: […]

guinea pig ileum [2] = experiment: Antagonism of the effects of PGF2α on the guinea pig ileum in vitro; assay type: cell-based; conditions: listed as TR 4412
Experimental: as §1, §2

Compound	Rat Uterus: activity value (ED50) (rat uterus)	Guinea Pig Trachea: activity value (guinea pig trachea)	Femoral Blood Flow: activity value (ED100 ml/min) (anesthetized dog)	Blood Pressure Hypertensive Rat: activity value (hypertensive rat)	antagonism to the smooth muscle stimulant effects of PGE1 (in words) (guinea pig ileum [1])	Feline Blood Pressure, Heart Rate: activity value (ED50 mmHg) (anesthetized cat)	antagonism to the smooth muscle stimulant effects of PGF2α (in words) (guinea pig ileum [2])
CCCCC[C@@H](O)/C(=C/[C@H]1[C@H](O)CC(=O)[C@@H]1C/C=C\CCCC(=O)OCC)c1ccccc1 [Example 7A, Ethyl 14-Phenyl-11α,15R-dihydroxy-9-oxoprosta-5Z,13E-dien-1-oate]	0 (>10)	1	–	–	–	–	–
CCCCC[C@H](O)/C(=C/[C@H]1[C@H](O)CC(=O)[C@@H]1CCCCCCC(=O)OC)c1ccccc1 [Example 1, Methyl 14-Phenyl-11α,15S-dihydroxy-9-oxoprost-13E-en-1-oate]	0 (>10)	–	0 (>10.0)	0	exhibited antagonism to the smooth muscle stimulant effects of PGE1 and PGF2α; also recorded: demonstrated a specificity of antagonism to the smooth muscle stimulant effects of PGE1 and PGF2α	0 (>10.0)	exhibited antagonism to the smooth muscle stimulant effects of PGE1 and PGF2α; also recorded: demonstrated a specificity of antagonism to the smooth muscle stimulant effects of PGE1 and PGF2α
